According to patent US10280134B1, “Potent cytotoxic agent against human hepatocellular carcinoma cell line based on 2-aryl hydrazonopropanal pharmacophore” (King Abdulaziz University, priority 2018, dated 2019):
Values after ≈ are worked out from the molar mass of the structure shown. Read-outs that look alike come from different tables or passages of the source.

What was measured:
[1] = system: BJ1 (Normal Skin Fibroblast); assay: MTT cytotoxicity assay on normal human fibroblast cell line BJ1; type: cell-based; conditions: for Remarks (% lethality at 100 ppm): BJ1 normal skin fibroblast, 48 hrs; for IC50 / IC90: Homo sapiens, Skin fibroblast, 48 h; for IC50: read-out: IC50: Lethal concentration of the sample which causes the death of 50% of cells in 48 hrs; for IC90: read-out: IC90: Lethal concentration of the sample which causes the death of 90% of cells in 48 hrs
Experimental: The activity of the test compounds on a non-cancerous, normal human fibroblast cell line, BJ1, was assessed by the mitochondrial dependent reduction of yellow MTT (3-(4,5-dimethylthiazol-2-yl)-2,5-diphenyl tetrazolium bromide) to purple formazan; Mosmann T. Rapid colorimetric assays for cellular growth and survival: Application to proliferation and cytotoxicity assays. J Immunol Methods.
All procedures were done in a sterile area using a Laminar flow cabinet biosafety class II level (Baker, SG4031NT, Sanford, Me., USA).
(§1) Cells were batch cultured for 10 days, then seeded at concentration of 10×10^3 cells/well in fresh complete growth medium in 96-well microtiter plastic plates at 37° C. for 24 h under 5% CO2 using a water jacketed Carbon dioxide incubator (Sheldon, TC2323, Cornelius, Oreg., USA). […] To stop the reaction and dissolving the formed crystals, 200 μL of 10% Sodium dodecyl sulphate (SDS) in deionized water was added to each well and incubated overnight at 37° C.
(§2) A statistical significance was tested between samples and negative control (cells with vehicle) using independent t-test by SPSS 11 program. DMSO is the vehicle used for dissolution of plant extracts and its final concentration on the cells was less than 0.2%. The percentage of change in viability was calculated according to the formula: ((Reading of extract/Reading of negative control)−1)×100.
Data Analysis of Cytotoxic Activity Test. Sample Testing Against the Normal Human Epithelial Cell Line: BJ1 (Normal Skin Fibroblast).

[2] = system: hepatocellular carcinoma cell line HEPG2; assay: MTT cytotoxicity assay on human hepatocellular carcinoma cell line HePG2; type: cell-based; conditions: for Remarks (% lethality at 100 ppm): HEPG2, at 100 ppm; for IC50 / IC90: Homo sapiens; for IC90: read-out: IC90: Lethal concentration of the sample which causes the death of 90% of cells in 48 hrs
Experimental: Cell viability was assessed by the mitochondrial dependent reduction of yellow MTT (3-(4,5-dimethylthiazol-2-yl)-2,5-diphenyl tetrazolium bromide) to purple formazan; Mossman, et al., id.
All procedures were done in a sterile area using a Laminar flow cabinet biosafety class II level (Baker, SG403INT, Sanford, Me., USA).
as §1, §2
Samples Tested Against the Human Tumor Cell Line(s): HePG 2 a Human Hepatocellular Carcinoma Cell Line.

[3] = HEPG2, MTT, 48 hrs, 100 to 0.78 μg/ml, read-out: IC50: Lethal concentration of the sample which causes the death of 50% of cells in 48 hrs
[4] = HEPG2, MTT, 48 hrs, 100 to 0.78 μg/ml

Structure (SMILES) | Remarks (% lethality at 100 ppm) [1] | safety on normal human cell line (in words) ([1]; normal human epithelial cell line (BJ1)) | Remarks (% lethality at 100 ppm) ([2]; 48 hrs) | IC50 [2, 3] | IC90 [2, 4] | IC50 [1] | IC90 [1] | IC50 ([2]; HEPG2, positive control, Table 3, Mw = 579.99, read-out: IC50 (positive control))
COC(=O)c1ccccc1N/N=C(\C=O)C(=O)c1ccccc1 [Compound 1] | 41.5% at 100 ppm | substantially safe | 95.3% at 100 ppm | 45.5 µg/mL | 77.3 µg/mL (≈ 249 µM) | – | – | –
COC(=O)c1ccccc1N/N=C(\C=O)C(C)=O [Compound 2] | 100% at 100 ppm | – | 100% at 100 ppm | 15.7 µg/mL | 28.3 µg/mL (≈ 114 µM) | 16.9 µg/mL (≈ 68.1 µM) | 29.1 µg/mL (≈ 117 µM) | –
COC(=O)c1ccccc1N/N=C(\C=O)C(=O)c1cccs1 [Compound 3] | 80% at 100 ppm | – | 100% at 100 ppm | 14.7 µg/mL | 26 µg/mL (≈ 82.2 µM) | 61 µg/mL (≈ 193 µM) | 105 µg/mL (≈ 332 µM) | –
COc1cccc2c1C(=O)c1c(O)c3c(c(O)c1C2=O)C[C@@](O)(C(=O)CO)C[C@@H]3O[C@H]1C[C@H](N)[C@H](O)[C@H](C)O1 [Doxorubicin, doxorubicin, reference compound] | – | – | – | – | – | – | – | 37.8 µM
